Here are results for 17 compounds from patent US4824955A, “Selenium oxy chloride-pyridine or bipyridine complexes” (Nippon Kayaku Kabushiki Kaisha, priority 1985, dated 1989).

The test system of series [1] is Enrlich carcinoma. In words: Antineoplastic activity against Enrlich carcinoma (life prolongation rate). Type of series: in vivo, 5-week-old ICR mice (male). Also on record: response vs control in vivo: dose or concentration left out as unconfirmed. As to conditions: for response vs control in vivo at 1 mg/kg: 1.0 mg/kg/day.
Protocol: Approximately 10^6 cells/0.2 ml of Enrlich carcinoma were inoculated into the abdominal cavity of each of the 5-week-old ICR mice (male) used for the test, and the test compounds were administered intraperitoneally to the mice of the treated group once a day for a period of 7 days, starting from the day after said inoculation. The mice of the control group was administered with a saline solution in the same way. Observation of the animals of both groups was continued for 60 days after the administration, and the life prolongation rate (T/C%, T/C×100) was determined from the average duration (days) of life of the mice of the treated group (T) and that of the mice of the control group (C).
Series [2] is described as follows: in vivo. As to conditions: mouse, ip, LD50, intraperitoneal, once a day, 7 days, mice.
The conditions of series [3]: intraperitoneal, once a day, 7 days, mice.
For series [4], the system named is Salmonella typhimurium TA-98. The series is described as follows: Antimutagenic activity, Ames method, against mutagenic action of benzpyrene. As to conditions: with B(α)P and S-9 mix. Type of series: cell-based. As for the experimental part:
The antimutagenic activity was examined according to the Ames method by using Salmonella typhimurium TA-98 as test bacterium and Benzo(α)pyrene (B(α)P) as (TA-98) mutagen.
To a solution of 5 μg of B(α)P and a proper amount of a compound of this invention in 0.1 ml of DMSO were added 0.5 ml of S-9 mix and 0.1 ml of a TA-98 suspension, and the mixture was subjected to preincubation at 37° C. for 20 minutes.
This preincubated mixture was further added with 2 ml of soft agar, and after sufficient mixing, the mixture was uniformly spread on a gluclose minimum agar medium plate and incubated at 37° C. for 48 hours. Thereafter, the number of the colonies produced by reverse mutation was counted.
The number of the colonies existing in the medium containing neither B(α)P nor the compound of this invention was given as background.
The antimutagenic activity was determined as a mutation inhibition rate from the following formula: [formula]

The mark [5] stands for this setting: Mus musculus, ip, 1440 h, 2.0 mg/kg/day, intraperitoneal, once a day, 7 days, read-out: Life prolongation rate (T/C %).
Where [6] appears, read: Mus musculus, ip, 1440 h, 8.0 mg/kg/day, intraperitoneal, once a day, 7 days, read-out: Life prolongation rate (T/C %).
Where [7] appears, read: Mus musculus, ip, 1440 h, […], intraperitoneal, once a day, 7 days, read-out: Life prolongation rate (T/C %).
Setting [8] is: Mus musculus, ip, 1440 h, intraperitoneal, once a day, 7 days, read-out: Life prolongation rate (T/C %).
[9] abbreviates: 2.0 mg/kg/day, intraperitoneal, once a day, 7 days.
The mark [10] stands for this setting: 4.0 mg/kg/day, intraperitoneal, once a day, 7 days.
The mark [11] stands for this setting: 8.0 mg/kg/day, intraperitoneal, once a day, 7 days.
Where [12] appears, read: Mus musculus, ip, 1440 h, […], intraperitoneal, (Note 2) administered for 2 days, read-out: Life prolongation rate (T/C %).
Where [13] appears, read: Mus musculus, ip, 1440 h, […], intraperitoneal, (Note 5) administered for 6 days, read-out: Life prolongation rate (T/C %).
[14] abbreviates: Mus musculus, ip, 1440 h, […], intraperitoneal, (Note 1) administered for 4 days, read-out: Life prolongation rate (T/C %).
The mark [15] stands for this setting: Mus musculus, ip, 1440 h, read-out: Life prolongation rate (T/C %).

Several values for one entry are separate records, joined by “and”; a condition that tells them apart may be missing. Equal values may be shown once. Read-outs that look alike come from different tables or passages of the source.

Turning to `Cn1cnc2c1c(=O)n(Cc1ccccc1)c(=O)n2C` [Compound 1-34, Selenium oxychloride-N--benzyltheobromine (1:2) complex], in series [1] (setting [5]), the response vs control in vivo at 2 mg/kg turned out to be 122%. For the same compound, the response vs control in vivo at 8 mg/kg in series [1] (setting [6]) stood at 187%. Further, the response vs control in vivo at 16 mg/kg in series [1] (setting [7]) came out at 190%. For the same compound, the response vs control in vivo in series [1] (setting [8]) came out at 159%. In addition, the LD50 in series [2] is greater than 16 mg/kg.
For the compound `O=P(c1ccccc1)(c1ccccc1)c1ccccc1` [Compound 1-36, Selenium oxycloride-triphenylphosphine oxide (1:2) complex], the response vs control in vivo at 2 mg/kg in series [1] (setting [5]) turned out to be 155%. For the same compound, the response vs control in vivo at 16 mg/kg in series [1] (setting [7]) was found to be 197%. Moreover, in series [1] (setting [8]), the response vs control in vivo was determined as 186%. Also, in series [2], the LD50 is greater than 16 mg/kg.
For `Cn1cnc2ccccc21` [Compound 1-40, Selenium oxychloride-N-methylbenzimidazole (1:1) complex], the “Life prolongation rate (T/C %)” value in series [1] (setting [9]) is 214%; in series [1] (setting [10]), 230%; in series [1] (setting [11]), 243%. In addition, in series [1] (setting [12]), the response vs control in vivo at 16 mg/kg was determined as 123%. Further, the LD50 in series [3] is 8-16 mg/kg/day × 7.
With `c1ccc(-c2ccccn2)nc1` [Compound 1-41, Selenium oxychloride-2,2'-dipyridyl (1:1) complex], the figures for the “Life prolongation rate (T/C %)” value in series [1] (setting [9]), in series [1] (setting [10]) and in series [1] (setting [11]) were 230%, 237% and 312%, respectively. For the same compound, the “Inhibition rate (mutation inhibition rate)” value in series [4] (0.5 μg/plate) is 22.6; in series [4] (1 μg/plate), 24.2; in series [4] (5 μg/plate), 33.6; in series [4] (10 μg/plate) it was 56.2; in series [4] (50 μg/plate), 67.5; in series [4] (100 μg/plate), 76.2. For the same compound, the “Inhibition rate (mutation inhibition rate)” value in series [4] (500 μg/plate) was 100. Moreover, the Number of colonies is recorded as 238 in series [4] (0.5 μg/plate); 234 in series [4] (1 μg/plate); 209 in series [4] (5 μg/plate); 149 in series [4] (10 μg/plate); 119 in series [4] (50 μg/plate); 96 in series [4] (100 μg/plate). In series [4] (500 μg/plate), this compound registered a Number of colonies of 16. This compound showed an LD50 in series [2] of 8 to 16 mg/kg.
Turning to `c1ccncc1` [Compound 2-1, Tetrabromoselenium-pyridine (1:2) complex], the “Life prolongation rate (T/C %)” value in series [1] (mouse, in vivo) was 185% and 171% and 222% and 146%. The same compound yielded an LD50 in series [3] greater than 16 mg/kg/day × 7.
On to `N#Cc1cccnc1` [Compound 2-7, Tetrachloroselenium-3-cyanopyridine (1:2) complex], for which the response vs control in vivo at 2 mg/kg in series [1] (Mus musculus, ip, 1440 h, 2.0 mg/kg/day, intraperitoneal, 7 days, solvent used: DMSO, read-out: Life prolongation rate (T/C %)) was 201%. For the same compound, the response vs control in vivo at 8 mg/kg in series [1] (Mus musculus, ip, 1440 h, 8.0 mg/kg/day, intraperitoneal, 7 days, solvent used: DMSO, read-out: Life prolongation rate (T/C %)) is 214%. Further, the response vs control in vivo at 16 mg/kg in series [1] (Mus musculus, ip, 1440 h, […], intraperitoneal, 7 days, solvent used: DMSO, read-out: Life prolongation rate (T/C %)) came out at 67%. In addition, the response vs control in vivo in series [1] (Mus musculus, ip, 1440 h, intraperitoneal, 7 days, solvent used: DMSO, read-out: Life prolongation rate (T/C %)) is 243%. This compound also had an LD50 in series [2] of 8 to 16 mg/kg.
As for `c1ccc(-c2ccccn2)nc1` [Compound 2-13, Tetrachloroselenium-2,2'-dipyridinyl (1:2) complex], the “Life prolongation rate (T/C %)” value was 152% in series [1] (setting [9]), 180% in series [1] (setting [10]) and 185% in series [1] (setting [11]). In addition, the response vs control in vivo at 16 mg/kg in series [1] (setting [13]) worked out at 97%. Moreover, the LD50 in series [3] is given as greater than 16 mg/kg/day × 7.
Take `CC(Cl)C(C)O[Se](=O)OC(C)C(C)Cl` (stereo not shown) [Compound 3-1, Di-(2-chloro-1-methylpropyl)-selenite]: the response vs control in vivo at 2 mg/kg in series [1] (setting [5]) was 177%. In addition, in series [1] (setting [6]), the response vs control in vivo at 8 mg/kg is 193%. In addition, the response vs control in vivo at 16 mg/kg in series [1] (setting [7]) is 90%. The response vs control in vivo in series [1] (setting [8]) was 179%. For the same compound, in series [2], the LD50 was 8 to 16 mg/kg.
Take `CC(C)(Cl)CO[Se](=O)OCC(C)(C)Cl` [Compound 3-2, Di-(2-chloro-2-methylpropyl)-selenite]: the response vs control in vivo at 2 mg/kg in series [1] (setting [5]) came out at 178%. The response vs control in vivo at 8 mg/kg in series [1] (setting [6]) came out at 207%. Besides, the response vs control in vivo at 16 mg/kg in series [1] (setting [12]) was determined as 63%. In addition, the response vs control in vivo in series [1] (setting [8]) came out at 232%. The compound also registered an LD50 in series [2] of 8 to 16 mg/kg.
On to `CCC(Cl)CO[Se](=O)OCC(Cl)CC` (stereo not shown) [Compound 3-3, Di-(2-chlorobutyl)selenite], for which, in series [1] (setting [8]), the response vs control in vivo at 1 mg/kg was 172% and the response vs control in vivo stood at 230%. For the same compound, the response vs control in vivo at 2 mg/kg in series [1] (setting [5]) was 205%. Also, the response vs control in vivo at 8 mg/kg in series [1] (setting [6]) was 212%. The same compound showed an LD50 in series [2] greater than 8 mg/kg.
In the case of `CCCCCCC(Cl)CO[Se](=O)OCC(Cl)CCCCCC` (stereo not shown) [Compound 3-4, Di-(2-chlorooctyl)selenite], the response vs control in vivo at 2 mg/kg in series [1] (setting [5]) amounted to 156%. The response vs control in vivo at 8 mg/kg in series [1] (setting [6]) was determined as 180%. Moreover, the response vs control in vivo at 16 mg/kg in series [1] (setting [14]) came to 53%. Further, the response vs control in vivo in series [1] (setting [8]) was determined as 208%. For the same compound, the LD50 in series [2] lay within 8 to 16 mg/kg.
Turning to `O=[Se](OCC(Cl)c1ccccc1)OCC(Cl)c1ccccc1` (stereo not shown) [Compound 3-5], the response vs control in vivo at 2 mg/kg in series [1] (setting [5]) worked out at 154%. Besides, in series [1] (setting [6]), the response vs control in vivo at 8 mg/kg stood at 223%. For the same compound, the response vs control in vivo at 16 mg/kg in series [1] (setting [13]) amounted to 167%. The response vs control in vivo in series [1] (setting [8]) came to 194%. Further, in series [2], the LD50 was greater than 16 mg/kg.
For `O=[Se](OC1CCCCC1Cl)OC1CCCCC1Cl` (stereo not shown) [Compound 3-6, Di-(2-chlorcyclohexyl)selenite], the response vs control in vivo at 2 mg/kg in series [1] (setting [5]) worked out at 210%. The response vs control in vivo at 8 mg/kg in series [1] (setting [6]) worked out at 253%. For the same compound, in series [1] (Mus musculus, ip, 1440 h, […], intraperitoneal, (Note 3) administered for 3 days, read-out: Life prolongation rate (T/C %)), the response vs control in vivo at 16 mg/kg was found to be 95%. In series [1] (setting [8]), the response vs control in vivo was 216%. The compound further displayed an LD50 in series [2] of 8 to 16 mg/kg.
For the compound `O=[Se](OC1C2CCC(C2)C1Cl)OC1C2CCC(C2)C1Cl` (stereo not shown) [Compound 3-7, Di-(3-chloronorbonyl-2-il)selenite], in series [1] (setting [5]), the response vs control in vivo at 2 mg/kg was determined as 143%. Further, the response vs control in vivo at 8 mg/kg in series [1] (setting [6]) stood at 201%. In addition, in series [1] (setting [14]), the response vs control in vivo at 16 mg/kg stood at 119%. Also, the response vs control in vivo in series [1] (setting [8]) came to 148%. In series [2], this compound returned an LD50 of 8 to 16 mg/kg.
Consider `CCC1CO[Se](=O)O1` (stereo not shown) [Compound 3-8, 1,2-butanediolselenite], for which, in series [1] (setting [8]), the response vs control in vivo at 1 mg/kg was determined as 208% and the response vs control in vivo was found to be 194%. Further, the response vs control in vivo at 2 mg/kg in series [1] (setting [5]) was 250%. Besides, the response vs control in vivo at 8 mg/kg in series [1] (setting [6]) was found to be 212%. The same compound registered an LD50 in series [2] greater than 8 mg/kg.
Consider `CCC1(CC)CO[Se](=O)OC1` [Compound 3-9, 2,2-diethyl-1,3-propanediolselenite], for which the response vs control in vivo at 2 mg/kg in series [1] (setting [5]) is 152%. Besides, the response vs control in vivo at 8 mg/kg in series [1] (setting [6]) was determined as 223%. In series [1] (setting [7]), the response vs control in vivo at 16 mg/kg was found to be 194%. In series [1] (setting [8]), the response vs control in vivo turned out to be 204%. Besides, in series [2], the LD50 was greater than 16 mg/kg.
As for `CN(C)c1ccncc1` [Compound 3-12, Selenium oxychloride-4-dimethylaminopyridine (1:2) complex], in series [1] (setting [15]), the response vs control in vivo at 2 mg/kg was 169%, the response vs control in vivo at 4 mg/kg is 183%, the response vs control in vivo at 8 mg/kg came to 232% and the response vs control in vivo at 16 mg/kg is 190%. The same compound gave an LD50 in series [2] greater than 16 mg/kg.
